{
  "source": "patent US20100105651A1",
  "about": "“ANTAGONISTS OF SNS SODIUM CHANNELS” (priority 2005, published 2010)",
  "data": [
    {"molecular_target": "T1, human NaV1.8 (hNaV1.8) ion channel (Homo sapiens, UniProt Q9Y5Y9)", "T1 construct": "expressed in transfected cells", "T1 sequence (Q9Y5Y9 whole entry)": "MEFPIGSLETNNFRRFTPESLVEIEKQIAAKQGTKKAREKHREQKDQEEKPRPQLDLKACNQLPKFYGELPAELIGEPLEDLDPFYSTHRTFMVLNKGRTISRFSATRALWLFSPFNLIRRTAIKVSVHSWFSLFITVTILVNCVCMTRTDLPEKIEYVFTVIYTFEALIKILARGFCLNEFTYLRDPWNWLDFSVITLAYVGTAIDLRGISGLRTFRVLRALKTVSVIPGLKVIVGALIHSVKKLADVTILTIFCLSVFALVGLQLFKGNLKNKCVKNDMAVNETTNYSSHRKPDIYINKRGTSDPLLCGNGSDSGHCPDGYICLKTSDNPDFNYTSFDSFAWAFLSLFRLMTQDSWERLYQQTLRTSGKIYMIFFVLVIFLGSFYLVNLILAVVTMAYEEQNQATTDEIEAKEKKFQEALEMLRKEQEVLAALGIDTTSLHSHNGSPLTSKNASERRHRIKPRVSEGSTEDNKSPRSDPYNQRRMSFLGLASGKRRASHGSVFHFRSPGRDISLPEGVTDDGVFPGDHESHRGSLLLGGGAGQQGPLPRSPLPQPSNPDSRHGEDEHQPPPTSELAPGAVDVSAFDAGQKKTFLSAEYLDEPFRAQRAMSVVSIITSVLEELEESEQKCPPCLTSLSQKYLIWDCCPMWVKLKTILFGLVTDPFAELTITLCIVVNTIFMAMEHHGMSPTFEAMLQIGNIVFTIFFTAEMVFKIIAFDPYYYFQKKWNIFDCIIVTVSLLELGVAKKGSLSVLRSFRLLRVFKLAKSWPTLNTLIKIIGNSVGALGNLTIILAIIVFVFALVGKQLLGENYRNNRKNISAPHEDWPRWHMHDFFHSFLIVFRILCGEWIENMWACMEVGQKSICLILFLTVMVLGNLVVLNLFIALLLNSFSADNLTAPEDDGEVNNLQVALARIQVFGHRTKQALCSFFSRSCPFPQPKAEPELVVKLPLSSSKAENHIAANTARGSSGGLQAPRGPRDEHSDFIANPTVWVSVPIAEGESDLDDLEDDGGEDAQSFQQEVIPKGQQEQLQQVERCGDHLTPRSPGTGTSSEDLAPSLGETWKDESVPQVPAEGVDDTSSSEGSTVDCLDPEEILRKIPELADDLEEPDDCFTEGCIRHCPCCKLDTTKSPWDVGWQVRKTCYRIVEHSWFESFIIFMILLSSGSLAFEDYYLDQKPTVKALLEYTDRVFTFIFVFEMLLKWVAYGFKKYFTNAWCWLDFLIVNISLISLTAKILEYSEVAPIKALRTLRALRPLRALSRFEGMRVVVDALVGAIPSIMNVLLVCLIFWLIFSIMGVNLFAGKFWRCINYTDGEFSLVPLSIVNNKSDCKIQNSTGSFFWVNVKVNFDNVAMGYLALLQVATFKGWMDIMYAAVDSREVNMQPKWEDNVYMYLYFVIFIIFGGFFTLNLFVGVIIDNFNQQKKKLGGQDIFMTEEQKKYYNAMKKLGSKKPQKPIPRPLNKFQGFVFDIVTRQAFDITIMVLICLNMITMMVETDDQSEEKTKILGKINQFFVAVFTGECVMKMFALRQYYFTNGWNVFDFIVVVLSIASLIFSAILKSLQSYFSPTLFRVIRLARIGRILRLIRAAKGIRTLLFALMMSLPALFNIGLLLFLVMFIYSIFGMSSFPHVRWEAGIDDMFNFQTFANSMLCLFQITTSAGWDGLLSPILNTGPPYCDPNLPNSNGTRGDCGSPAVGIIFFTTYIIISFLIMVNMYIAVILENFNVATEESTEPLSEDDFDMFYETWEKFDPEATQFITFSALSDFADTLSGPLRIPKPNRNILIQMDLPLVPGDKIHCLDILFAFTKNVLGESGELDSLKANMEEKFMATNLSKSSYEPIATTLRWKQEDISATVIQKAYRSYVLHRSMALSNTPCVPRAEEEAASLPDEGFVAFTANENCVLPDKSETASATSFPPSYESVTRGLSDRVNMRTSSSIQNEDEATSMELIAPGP", "assay": "Inhibition of Human NaV1.8 stably expressed in SH-SY-5Y cells (membrane potential dye fluorescence assay)", "type": "cell-based", "details": "SH-SY-5Y cells stably expressing hNaV1.8; FLIPR membrane potential dye; 10 μM pyrethroid, 250 nM TTX; test range 100 μM-0.05 μM; read-out: hNav1.8 IC50", "units": {"IC50": "nM"}, "values": [
      {"smiles": "CCCCOc1ccc(NC(=O)N2CC(N(C)C(C)c3ccc(F)cc3)C2)cc1", "note": "(centres unmarked) [Example 86, 3-{[1-(4-Fluoro-phenyl)-ethyl]-methyl-amino}-azetidine-1-carboxylic acid (4-butoxy-phenyl)-amide]", "IC50": 3530},
      {"smiles": "CCCCOc1cccc(NC(=O)N2CC(N(C)C(C)c3ccccc3C)C2)c1", "note": "(centres unmarked) [Example 87, 3-[Methyl-(1-o-tolyl-ethyl)-amino]-azetidine-1-carboxylic acid (3-butoxy-phenyl)-amide]", "IC50": 1030},
      {"smiles": "CC(NC1CN(C(=O)Nc2ccc(Oc3ccccc3)cc2)C1)c1ccccc1C(F)(F)F", "note": "(centres unmarked) [Example 88, 3-[1-(2-Trifluoromethyl-phenyl)-ethylamino]-azetidine-1-carboxylic acid (4-phenoxy-phenyl)-amide]", "IC50": 1180},
      {"smiles": "CCCCOc1ccc(NC(=O)N2CC(N(C)C(C)c3ccccc3C)C2)cc1", "note": "(centres unmarked) [Example 89, 3-[Methyl-(1-o-tolyl-ethyl)-amino]-azetidine-1-carboxylic acid (4-butoxy-phenyl)-amide]", "IC50": 580},
      {"smiles": "CC(c1ccc(Oc2ccccc2)cc1)N(C)C1CN(C(=O)Nc2ccc(C(F)(F)F)cc2)C1", "note": "(centres unmarked) [Example 90, 3-{Methyl-[1-(4-phenoxy-phenyl)-ethyl]-amino}-azetidine-1-carboxylic acid (4-trifluoromethyl-phenyl)-amide]", "IC50": 1430},
      {"smiles": "CC(c1ccc(F)cc1)N(C)C1CN(C(=O)Nc2ccc(Oc3ccccc3)cc2)C1", "note": "(centres unmarked) [Example 91, 3-{[1-(4-Fluoro-phenyl)-ethyl]-methyl-amino}-azetidine-1-carboxylic acid (4-phenoxy-phenyl)-amide]", "IC50": 690},
      {"smiles": "CC(c1ccc(F)cc1Cl)N(C(=O)C(F)(F)F)C1CN(C(=O)Nc2ccc(Oc3ccccc3)cc2)C1", "note": "(centres unmarked) [Example 92, 3-[[1-(2-Chloro-4-fluoro-phenyl)-ethyl]-(2,2,2-trifluoro-acetyl)-amino]-azetidine-1-carboxylic acid (4-phenoxy-phenyl)-amide]", "IC50": 15100},
      {"smiles": "CC(c1ccccc1C(F)(F)F)N(C)C1CN(C(=O)Nc2ccc(Oc3ccccc3)cc2)C1", "note": "(centres unmarked) [Example 93, 3-{Methyl-[1-(2-trifluoromethyl-phenyl)-ethyl]-amino}-azetidine-1-carboxylic acid (4-phenoxy-phenyl)-amide]", "IC50": 1800},
      {"smiles": "CC(NC1CN(C(=O)Nc2ccc(Oc3ccc(F)cc3)cc2)C1)c1ccccc1Cl", "note": "(centres unmarked) [Example 94, 3-[1-(2-Chloro-phenyl)-ethylamino]-azetidine-1-carboxylic acid [4-(4-fluoro-phenoxy)-phenyl]-amide]", "IC50": 540},
      {"smiles": "CC(c1ccc(F)cc1)N(C)C1CN(C(=O)Nc2cccc(C(F)(F)F)c2)C1", "note": "(centres unmarked) [Example 95, 3-{[1-(4-Fluoro-phenyl)-ethyl]-methyl-amino}-azetidine-1-carboxylic acid (3-trifluoromethyl-phenyl)-amide]", "IC50": 4550},
      {"smiles": "Cc1ccccc1C(C)N(C)C1CN(C(=O)Nc2cccc(C(F)(F)F)c2)C1", "note": "(centres unmarked) [Example 96, 3-[Methyl-(1-o-tolyl-ethyl)-amino]-azetidine-1-carboxylic acid (3-trifluoromethyl-phenyl)-amide]", "IC50": 3020},
      {"smiles": "CC(c1ccccc1Cl)N(C)C1CN(C(=O)Nc2cccc(C(F)(F)F)c2)C1", "note": "(centres unmarked) [Example 97, 3-{[1-(2-Chloro-phenyl)-ethyl]-methyl-amino}-azetidine-1-carboxylic acid (3-trifluoromethyl-phenyl)-amide]", "IC50": 3640},
      {"smiles": "CC(c1ccc(F)cc1)N(C)C1CN(C(=O)Nc2ccc(OC(F)(F)F)cc2)C1", "note": "(centres unmarked) [Example 98, 3-{[1-(4-Fluoro-phenyl)-ethyl]-methyl-amino}-azetidine-1-carboxylic acid (4-trifluoromethoxy-phenyl)-amide]", "IC50": 3190},
      {"smiles": "CN(C1CN(C(=O)Nc2ccc(Oc3ccccc3)cc2)C1)C(C)(C)c1ccccc1", "note": "[Example 99, 3-[Methyl-(1-methyl-1-phenyl-ethyl)-amino]-azetidine-1-carboxylic acid (4-phenoxy-phenyl)-amide]", "IC50": 630}
    ]}
  ]
}
